Test results reported in patent US20160000823A1, “METHODS AND COMPOSITIONS FOR IMPROVING HEMOSTASIS” (Mast Therapeutics, Inc., priority 2014, published 2016).
“Also recorded” adds a separate entry of the source.

What was measured:
[1] = test system: t-PA induced bleeding; assay: Rat tail bleeding model with tissue plasminogen activator; format: in vivo
Method: Tissue plasminogen activator (t-PA) is used clinically to lyse occlusive thrombi. Bleeding complications that result from the unwanted lysis of hemostatic clots limits its use. TA is a synthetic derivative of the amino acid lysine that acts as a fibrinolytic inhibitor and is used clinically to antagonize unwanted bleeding. The effect oft-PA induced bleeding and its antagonism with TA was assessed in a rat tail bleeding model. Rats were anaesthetized by intraperitoneal injection of pentobarbital at 50 mg/kg. The thrombolytic agent t-PA was intravenously injected at a dose of 1 mg/kg, alone or in combination with TA at a dose of 5 mg/kg or 10 mg/kg. Another group of rats were administered 5 mg/kg TA alone. Control rats were administered saline. Each treatment group contained 7-10 rats.
Following treatment, rat tails were amputated about 4 mm from the tip and the tails were immersed in normal saline at 37° C. The bleeding time was determined as the time for complete cessation of blood flow from the amputated tail by visual inspection.
The relative ability of P188 to antagonize t-PA induced bleeding (compared to TA) was studied by evaluating P188 in the same rat tail bleeding model as described in Example 3. […]
Rat tails were amputated about 4 mm from the tip and the tails were immersed in normal saline at 37° C. and bleeding time was assessed as described in Example 3. […]

[2] = test system: embolic middle cerebral artery occlusion; assay: Embolic MCAO stroke model: adhesive removal test; format: in vivo, rat
Method: (§1) tPA is an effective treatment for acute stroke. Its use is limited by a narrow treatment window (3.5-4.5 hours from onset of stroke) and a greater risk of intracerebral hemnorrhage. […] To show this, the effects of administration of tPA alone, and tPA in combination with P188 were studied in a rat model of embolic middle cerebral artery occlusion. Male Wistar rats (N=10), 3-4 months old and weighing 350-400 g were subjected to embolic middle cerebral artery occlusion (MCAO) as described by Zhang (Zhang R L et al. A rat model of focal embolic cerebral ischemia. Brain Res. 1997, 766:83-92). Following occlusion, neurologic deficit was assessed 30 minutes after MCAO using a 5 point neurological scale (Longa scale; Longa et al., (1989) Stroke 20:84-91).
(§2) To compare the two treatments, P188 in combination with tPA and tPA alone were administered according to the schedule provided in Table 2. The dose of P188 was administered in a volume of 1.0 ml infused over a period of 1 hr by intravenous (IV) infusion via a tail vein. […] At 1 and 7 days after stroke onset (MCAO), clinical neurological function was assessed using the adhesive removal test and modified neurological severity score (mNSS) (Li Y, Chen J, Wang L, Lu M, Chopp M. Treatment of stroke with intracarotid administration of marrow stromal cells. Neurology 2001, 56: 1666-1672). […]

[3] = test system: embolic middle cerebral artery occlusion; assay: Embolic MCAO stroke model: modified neurological severity score (mNSS); format: in vivo, rat; conditions: same schedule
Method: as §1, §2

[4] = test system: embolic middle cerebral artery occlusion; assay: Embolic MCAO stroke model: lesion volume; format: in vivo, rat; conditions: day 7 after MCAO, H&E coronal sections
Method: as §1, §2

[5] = test system: embolic middle cerebral artery occlusion; assay: Embolic MCAO stroke model: gross hemorrhage; format: in vivo, rat; conditions: day 7 after MCAO, n=10 per group
Method: as §1
To compare the two treatments, P188 in combination with tPA and tPA alone were administered according to the schedule provided in Table 2. […] At 1 and 7 days after stroke onset (MCAO), clinical neurological function was assessed using the adhesive removal test and modified neurological severity score (mNSS) (Li Y, Chen J, Wang L, Lu M, Chopp M. Treatment of stroke with intracarotid administration of marrow stromal cells. Neurology 2001, 56: 1666-1672). […]
The harvested brains also were assessed for the incidence of gross hemorrhage, defined as blood evident to the unaided eye on the H&E stained coronal sections. […]

NC[C@H]1CC[C@H](C(=O)O)CC1 [TA, tranexamic acid, reference compound]
t-PA induced bleeding ([1]; t-PA 1 mg/kg IV in combination with TA 5 or 10 mg/kg (FIG. 14)): dose dependent reduction

tissue plasminogen activator [t-PA]
bleeding time of amputated tail ([1]; t-PA alone 1 mg/kg IV, versus saline): marked prolongation of bleeding time; also recorded: increased bleeding time | average time to tape removal ([2]; day 1 after MCAO, tPA 10 mg/kg IV at 4 hr, P188 300 mg/kg IV at 3.5 hr and 2,000 mg/kg ip at 9.5 hr): approximately 120 seconds | average time to tape removal ([2]; day 7 after MCAO, same schedule): approximately 100 seconds | average mNSS score ([3]; 1 day after MCAO): approximately 10.5 | average mNSS score ([3]; 7 days after MCAO): approximately 8.5 | average lesion volume [4]: approximately 35 % of contralateral hemisphere | animals exhibiting gross hemorrhage [5]: 30%
